Results from US12337000B2, “Therapeutic modulators of the reverse mode of ATP synthase” (priority 2017, dated 2025).
Entries after “also recorded” stand apart in the source; their conditions may differ. Like-named read-outs stand apart in the source and are kept apart here.

What was measured:
F1F0 ATP synthesis = target: T1, F1F0 ATP synthesis (Bos taurus, UniProt P00829+P19483); details: SMP assays, [5-8]; cited from earlier work
T1 construct: are from sub-mitochondrial (SMP) studies in [5-8]; from tissue; host or cells: sub-mitochondrial particles (SMPs)

ex vivo rat heart = details: 10 μM [11]; cited from earlier work
[1] = test system: 59 different cancer cell lines (NCI-60); assay: NCI-60 five-dose in vitro assay; type: cell-based; details: Homo sapiens, read-out: mean GI50 of all 59 cell lines
Text: Results are from the NCI-60 five-dose in vitro assay at the Developmental Therapeutics Program (DTP), at the National Cancer Institute (NCI, Bethesda, MD, USA). […] These graphs are as outputted by the NCI but changed from colour to black and white. On the y-axis of each is the aforementioned “Growth Percent” parameter used by NCI, which is growth relative to the no-compound control, and relative to the time zero number of cells.

[2] = test system: 59 cancer cell lines (NCI-60); assay: NCI-60 one-dose in vitro assay; type: cell-based, human; details: for inhibition at 100 µM / inhibition at 10 µM: Homo sapiens; for inhibition at 10 µM: 48 hours, read-out: mean cancer growth inhibition, across all 59 cancer cell lines; for inhibition at 10 µM / anti-cancer activity (in words): 10 μM
Text: FIGS. 1, 2, 3, 4, 5, 6, 7, 8 show results from the NCI-60 one-dose in vitro assay at the Developmental Therapeutics Program (DTP), at the National Cancer Institute (NCI, Bethesda, MD, USA). Its protocol is well known to those of the art, and it tests the effect, if any, of a test compound on the growth/survivability of a cancer cell line as compared to the no compound control. […] However, a constant is that there is always representative cell lines from leukemia, melanoma and cancers of the lung, colon, brain, ovary, breast, prostate and kidney. In a one-dose NCI compound test report, NCI report a number for each cell line, which they call “Growth Percent”, which is its growth relative to the no-compound control, and relative to the time zero number of cells. This reported parameter allows detection of both growth inhibition (values between 0 and 100) and lethality (values less than 0). For example, an NCI “Growth Percent” value of 100 means no growth inhibition. Value of 40 means 60% growth inhibition. Value of 0 means no net growth over the course of the experiment. Value of −40 means 60% lethality. Value of −100 means all cells are dead. I don't present NCI one-dose data in this original format. Instead, if the NCI “Growth Percent” value for a cell is positive, it is manipulated: [100 minus this original NCI-60 “Growth Percent” data point], to yield the percentage “Growth Inhibition”. If the original NCI “Growth Percent” value for a cell is negative, it is made positive to be the percentage of original cancer cells (at time zero) killed: “Percentage Killed” {and in these cases, of course, all growth has been inhibited, so percentage “Growth Inhibition” is then specified to be 100% for this cancer cell line}. In my one-dose figures, “Growth Inhibition” (0-100%) is presented on the x-axis and, if applicable, “Percentage Killed” (0-100%) further along on the x-axis. The latter is applicable when there is not just cancer growth inhibition but a reduction in the number of cancer cells from the start time i.e. when the compound is not merely slowing cancer growth, but is actively reducing the number of cancer cells from the starting number. In cases where there is only growth inhibition, only “Growth inhibition” is presented on the x-axis.
NCI-60 tests are performed at a controlled temperature of 37° C..
To perform the anti-cancer testing reported: BMS-199264 hydrochloride was purchased from Sigma-Aldrich. BTB06584 was purchased from AdooQ Bioscience, Irvine, CA, USA. Compounds 19a (separated into 6a and 6b stereoisomers) and 31 were synthesized by reaction schemes disclosed herein. Almitrine dimesylate was purchased from Ak Scientific, Palo Alto, CA, USA.

[3] = target: forward mode of ATP synthase (Homo sapiens, UniProt P06576+P25705+P48047); details: [P4]; cited from earlier work
[4] = target: reverse mode of ATP synthase (Homo sapiens, UniProt P06576+P25705+P48047); details: [P4]; cited from earlier work
[5] = Enantiomeric excess (ee) stability experiments; type: physicochemical; details: FIG. 16
Text: FIG. 16. The enantiomeric excess (ee) of 6a and 6b is […] in presented ee stability experiments. […] This ee instability in biological media is an unexpected result. This finding is componentry to the invention of this disclosure, as are any modifications to the structure of 6a or 6b to slow their ee erosion due to epimerization/racemization. The ee instability is unexpected because it runs contrary to theory. The 2nd order rate constant (kgb) for general-base catalysed racemization can be predicted for 6a and 6b by theory from (and its supplementary information, all incorporated by reference). Joined to the stereogenic carbon of 6a and 6b there is a phenyl group, alkyl and a guanidine group: ΣΔΔG(R1,R2,R3)=[…]=−36.2 kcal/mol. The value for the guanidine group (19.1) is not from but from one of its authors, Dr. Andrew Leach, by personal communication, who sourced it by quantum mechanical calculation with the Gaussian 03 software package. The cross-conjugation correction was not applied in this case because Dr. Leach wrote “I would not expect guanidine to be a conjugating group”. log(kgb)=−0.11*ΣΔΔG(R1,R2,R3)−9.81, ∴Kgb=0.00000148593 M^−1s^−1. This is not particularly fast. Racemization might occur faster for 6a and 6b in cells than predicted by theory because their high lipophibicity concentrates them in biological membranes. […]

[6] = In vivo mouse study of 6a and 6b, rectal temperature and survival at 22° C. room temperature; set-up: species or system Mus Musculus C57BL/6; details: for effect on rectal temperature (in words): in vivo, iv
Procedure: FIG. 15. In vivo study of compounds 6a and 6b, conducted at 22° C. room temperature. METHODOLOGY: 4 mice were used and in the presented table “Day” refers to the number of days since the 1st drug/vehicle dose on Day 1. Some experimental details: intravenous (IV) administration (tail vein), dosing volume=10 μl/g, solution (not suspension), sterilised (0.22 μm filter) vortexed vehicle=12.5% solutol, 12.5% ethanol, 75% water, IV solutions freshly prepared before injection except on days 22 and 39 when solutions prepared on previous dosing days were used (sub-optimal), Female Mus Musculus C57BL/6 strain, 6-8 weeks old at study start, mice sourced from Shanghai Lingchang Bio-Technology Co. Ltd, mice were observed/quarantined for a few days after arrival and before dosing, ad libitum Co^60 irradiation sterilized dry granule food & reverse osmosis autoclaved water, corn cob bedding, polysulfone individually ventilated cage (IVC, containing up to 5 animals): 325 mm×210 mm×180 mm, 12 hour light/dark cycle, 40-70% humidity, 20-26° C. room temperature, StudyDirector™ software (Studylog Systems, Inc. CA, USA) used to allocate/randomize control/treatment groups, animals marked by ear coding (notch), care and use of animals in accordance with the regulations of the Association for Assessment and Accreditation of Laboratory Animal Care (AAALAC), when recording rectal temperature: care was taken to ensure constant depth of probe insertion across different recordings, time was afforded for rectal probe temperature to equilibrate with rectal temperature, and time was afforded between recordings for probe temperature to reset.

F1F0 ATP hydrolase = target: T2, F1F0 ATP hydrolase (Bos taurus, UniProt P00829+P19483); details: cited from earlier work; for IC50: [5-6], read-out: IC50 reverse mode of ATP synthase
T2 construct: from tissue; host or cells: sub-mitochondrial particles (SMPs)

[7] = test system: 59 cancer cell lines (NCI-60); details: 10 μM, NCI-60 one-dose, NSC: 760347 in [16], cited from earlier work
[8] = test system: HL-1 cardiac muscle cell line; details: 3 μM, HL-1 cells, data from [12]; cited from earlier work
[9] = mice, intraperitoneal injection (IP); cited from earlier work
[10] = cited from earlier work
[11] = Human pharmacokinetics of oral almitrine dimesylate; type: in vivo; details: human, plasma; single 200 mg oral dose, humans [121]; read-out: mean cmax plasma concentration
[12] = test system: 59 different cancer cell lines (NCI-60); details: NCI-60 five-dose, from Table 1 of [30]; cited from earlier work
[13] = 1.9 g/kg intraperitoneal, 24.5 to 25° C. ambient temperature [100]; cited from earlier work
[14] = read-out: median cancer growth inhibition

SMILES: CC1(C)Oc2ccc(S(=O)(=O)N3CCCCC3)cc2[C@@H](N(Cc2ncc[nH]2)c2ccc(Cl)cc2)[C@@H]1O [BMS-199264]
- EC50 (F1F0 ATP synthesis): 18 µM
- harm to normal cells (ex vivo rat heart) (ex vivo rat heart): doesn't harm; also recorded: does not harm
- GI50 [1]: 3.9 µM
- inhibition at 100 µM ([2]; read-out: Mean % cancer growth inhibition): > 100%

SMILES: CN1C(=O)C(Cc2ccc3ccccc3c2)N=C(c2ccc(O)cc2)c2cc(Cl)ccc21 (centres unmarked) [Bz-423]
- EC50 [3]: 5.5 µM
- EC50 [4]: 8.9 µM

SMILES: N#Cc1cccc(C(=O)/N=C(\Nc2ccc(Cl)cc2)N[C@@H](Cn2ccnc2)c2ccc(Cl)cc2Cl)c1 [Compound 6a]
- enantiomeric excess (ee) stability [5]: stable
- LD50 ([6]; female, C57BL/6, in vivo, mouse, IV): > 40 mg/kg
- effect on rectal temperature (in words) ([6]; mouse): does not
- EC50 (F1F0 ATP hydrolase; SMP studies in [5-8], read-out: EC50 F1F0 ATP hydrolysis / hydrolase): > 100 µM
- IC50 (F1F0 ATP hydrolase): > 100 µM
- GI50 [1]: 0.666 µM
- inhibition at 10 µM [2]: 57%
- inhibition at 100 µM [2, 14]: > 79%

SMILES: N#Cc1cccc(C(=O)/N=C(\Nc2ccc(Cl)cc2)N[C@H](Cn2ccnc2)c2ccc(Cl)cc2Cl)c1 [Compound 6b]
- enantiomeric excess (ee) stability [5]: stable
- time to death after IV injection ([6]; 20 mg/kg IV): ~210 min
- survival time after IV injection ([6]; 40 mg/kg IV, found dead the next day): > 6 h
- effect on rectal temperature (in words) ([6]; mouse): potently reduces rectal temperature
- IC50 (F1F0 ATP hydrolase): 0.018 µM
- GI50 [1]: 0.446 µM
- inhibition at 10 µM [2]: 66%
- inhibition at 100 µM [2, 14]: > 79%

SMILES: CCN1CC(CCN2CCOCC2)C(c2ccccc2)(c2ccccc2)C1=O (centres unmarked) [Doxapram]
- median % cancer growth inhibition [7]: −2.3%
- mean % cancer growth inhibition ([7]; negative = growth promotion): −3.7%

SMILES: CC[C@H]1/C=C/C=C/C[C@@H](C)[C@H](O)[C@@](C)(O)C(=O)[C@@H](C)[C@H](O)[C@@H](C)C(=O)[C@@H](C)[C@H](O)[C@@H](C)/C=C/C(=O)O[C@@H]2[C@H](C)[C@H](CC1)O[C@@]1(O[C@@H](C[C@@H](C)O)[C@@H](C)CC1=O)[C@H]2C [Oligomycin B]
- change of O2 consumption [8]: −40%

SMILES: C=CCNc1nc(NCC=C)nc(N2CCN(C(c3ccc(F)cc3)c3ccc(F)cc3)CC2)n1.CS(=O)(=O)O [almitrine dimesylate, 6-[4-[bis(4-fluorophenyl)methyl]piperazin-1-yl]-2-N,4-N-bis(prop-2-enyl)-1,3,5-triazine-2,4-diamine methanesulfonic acid]
- LD50 [9]: 370 mg/kg
- plasma [almitrine] ([10]; 24 hours after 200 mg oral dose [121]): ~50 ng/mL
- oral bioavailability ([10]; humans [121]): 70%
- mean cmax plasma concentration ([10]; single 150 mg oral dose, humans [123]): 379 ng/mL
- mean cmax plasma concentration ([10]; single 200 mg oral dose, humans [121]): 286 ng/mL
- anti-cancer activity (in words) [2]: Anti-cancer activity
- anti-cancer activity (in words) ([2]; listed as almitrine dismesylate): greater anti-cancer activity than carboplatin
- Cmax [11]: 600 nM

SMILES: N.N.[Cl][Pt][Cl] [cisplatin]
- GI50 [12]: 1.4 µM

SMILES: CCO [ethanol]
- reduction of body temperature [13]: 1.6 °C
